Laboratory results: paper PMC9574929, “Development of Hydrogen Sulfide-Releasing Carbonic Anhydrases IX- and XII-Selective Inhibitors with Enhanced Antihyperalgesic Action in a Rat Model of Arthritis” (Journal of Medicinal Chemistry, 2022)

Assays:
hCA I = hCA I (Homo sapiens, UniProt P00915); experiment: Stopped-flow CO2 hydrase assay, hCA I
Description: (§1) The uncatalyzed rates were determined in the same manner and subtracted from the total observed rates. Stock solutions of inhibitor (0.1 mM) were prepared in distilled-deionized water and dilutions up to 0.01 nM were done thereafter with the assay buffer. […] The inhibition constants were obtained by nonlinear least-squares methods using PRISM 3 and the Cheng–Prusoff equation, as reported earlier,[39] and represent the mean from at least three different determinations.

hCA IV = hCA IV (Homo sapiens, UniProt P22748); experiment: Stopped-flow CO2 hydrase assay, hCA IV; conditions: for SI CA I/IV / SI CA II/IV: selectivity index, ratio of KIs
hCA XII = hCA XII (Homo sapiens, UniProt O43570); experiment: Stopped-flow CO2 hydrase assay, hCA XII; conditions: for SI CA I/XII / SI CA II/XII: selectivity index, ratio of KIs
Description: as §1

hCA IX = hCA IX (Homo sapiens, UniProt Q16790); experiment: Stopped-flow CO2 hydrase assay, hCA IX; conditions: for SI CA I/IX / SI CA II/IX: selectivity index, ratio of KIs
Description: as §1

hCA II = hCA II (Homo sapiens, UniProt P00918); experiment: Stopped-flow CO2 hydrase assay, hCA II; conditions: for SI CA I/II: selectivity index, ratio of KIs
Description: as §1

hCA XII, sequence (O43570 25-354): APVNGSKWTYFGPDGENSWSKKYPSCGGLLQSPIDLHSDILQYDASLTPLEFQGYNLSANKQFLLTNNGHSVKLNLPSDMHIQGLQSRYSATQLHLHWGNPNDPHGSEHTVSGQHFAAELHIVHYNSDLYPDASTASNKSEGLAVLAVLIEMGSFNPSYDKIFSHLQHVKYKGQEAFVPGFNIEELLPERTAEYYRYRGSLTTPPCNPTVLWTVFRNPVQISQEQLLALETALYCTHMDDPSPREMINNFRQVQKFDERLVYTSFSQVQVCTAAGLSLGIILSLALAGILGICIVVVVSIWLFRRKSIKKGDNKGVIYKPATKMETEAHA
hCA I, sequence (P00915 whole entry): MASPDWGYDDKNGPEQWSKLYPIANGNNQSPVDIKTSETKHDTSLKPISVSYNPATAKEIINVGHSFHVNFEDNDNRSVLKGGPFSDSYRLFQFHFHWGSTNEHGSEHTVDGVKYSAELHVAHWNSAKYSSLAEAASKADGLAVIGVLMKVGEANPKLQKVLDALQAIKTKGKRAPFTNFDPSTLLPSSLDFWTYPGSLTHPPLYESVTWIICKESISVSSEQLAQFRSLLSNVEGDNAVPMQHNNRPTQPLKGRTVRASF
hCA IV, sequence (P22748 19-312): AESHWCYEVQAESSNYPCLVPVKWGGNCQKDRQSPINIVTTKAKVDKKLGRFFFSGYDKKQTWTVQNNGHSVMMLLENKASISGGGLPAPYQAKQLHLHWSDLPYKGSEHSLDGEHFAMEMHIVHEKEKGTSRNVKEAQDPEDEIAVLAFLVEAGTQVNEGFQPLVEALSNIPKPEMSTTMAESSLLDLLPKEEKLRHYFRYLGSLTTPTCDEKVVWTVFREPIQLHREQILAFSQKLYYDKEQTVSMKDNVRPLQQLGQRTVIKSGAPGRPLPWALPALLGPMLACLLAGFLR

| Ki (hCA I) | Ki (hCA IV) | SI CA I/IV (hCA IV) | SI CA II/IV (hCA IV) | Ki (hCA XII) | SI CA I/XII (hCA XII) | SI CA II/XII (hCA XII) | Ki (hCA IX) | SI CA I/IX (hCA IX) | SI CA II/IX (hCA IX) | Ki (hCA II) | SI CA I/II (hCA II) | melting point | SMILES |
| --- | --- | --- | --- | --- | --- | --- | --- | --- | --- | --- | --- | --- | --- |
| 0.771 to 0.89 µM |  | 0.18 | 0.11 |  | 79.4 | 49.5 |  | 19.2 | 11.1 |  |  | 139 to 140 °C | NS(=O)(=O)c1ccc(CCN(Cc2ccccc2)C(=O)c2ccc(-c3cssc3=S)cc2)cc1 [Compound 19, N-Benzyl-N-(4-sulfamoylphenethyl)-4-(3-thioxo-3H-1,2-dithiol-4-yl)benzamide] |
|  |  | <0.53 | <0.06 |  | 81.5 | 9.2 |  | 115 | 13.0 |  |  | 158 to 159 °C | NS(=O)(=O)c1ccc(CCN(Cc2ccc(F)cc2)C(=O)c2ccc(-c3cssc3=S)cc2)cc1 [Compound 20, N-(4-Fluorobenzyl)-N-(4-sulfamoylphenethyl)-4-(3-thioxo-3H-1,2-dithiol-4-yl)benzamide] |
|  |  | 12.8 | 6.9 |  | 561 | 303 |  | 229 | 124 |  |  | 104 to 105 °C | NS(=O)(=O)c1ccc(CCN(Cc2ccc(Cl)cc2)C(=O)c2ccc(-c3cssc3=S)cc2)cc1 [Compound 21, N-(4-Chlorobenzyl)-N-(4-sulfamoylphenethyl)-4-(3-thioxo-3H-1,2-dithiol-4-yl)benzamide] |
|  |  | 7.4 | 3.5 |  | 597 | 284 |  | 403 | 192 |  |  | 65 to 66 °C | NS(=O)(=O)c1ccc(CCN(Cc2ccc(Br)cc2)C(=O)c2ccc(-c3cssc3=S)cc2)cc1 [Compound 22, N-(4-Bromobenzyl)-N-(4-sulfamoylphenethyl)-4-(3-thioxo-3H-1,2-dithiol-4-yl)benzamide] |
|  |  | 1.2 | 0.3 |  | 448 | 105 |  | 188 | 43.9 |  |  | 185 to 186 °C | CN(C)c1ccc(CN(CCc2ccc(S(N)(=O)=O)cc2)C(=O)c2ccc(-c3cssc3=S)cc2)cc1 [Compound 24, N-(4-(Dimethylamino)benzyl)-N-(4-sulfamoylphenethyl)-4-(3-thioxo-3H-1,2-dithiol-4-yl)benzamide] |
|  |  | 1.4 | 0.4 |  | 29.0 | 7.7 |  | 44.0 | 11.7 |  |  | 151 to 152 °C | COc1ccc(CN(CCc2ccc(S(N)(=O)=O)cc2)C(=O)c2ccc(-c3cssc3=S)cc2)cc1 [Compound 27, N-(4-Methoxybenzyl)-N-(4-sulfamoylphenethyl)-4-(3-thioxo-3H-1,2-dithiol-4-yl)benzamide] |
| 0.771 to 0.89 µM |  | 3.0 | 0.7 |  | 105 | 25.7 |  | 47.9 | 11.7 |  |  | 183 to 184 °C | COc1ccc(CN(CCc2ccc(S(N)(=O)=O)cc2)C(=O)c2ccc(-c3cssc3=S)cc2)cc1OC [Compound 28, N-(3,4-Dimethoxybenzyl)-N-(4-sulfamoylphenethyl)-4-(3-thioxo-3H-1,2-dithiol-4-yl)benzamide] |

Continued, compound first:

| SMILES | Ki (hCA I) | Ki (hCA IV) | SI CA I/IV (hCA IV) | SI CA II/IV (hCA IV) | Ki (hCA XII) | SI CA I/XII (hCA XII) | SI CA II/XII (hCA XII) | Ki (hCA IX) | SI CA I/IX (hCA IX) | SI CA II/IX (hCA IX) | Ki (hCA II) | SI CA I/II (hCA II) | melting point |
| --- | --- | --- | --- | --- | --- | --- | --- | --- | --- | --- | --- | --- | --- |
| NS(=O)(=O)c1ccc(CCNCc2ccc(Cl)cc2)cc1 [Compound 6, 4-(2-((4-Chlorobenzyl)amino)ethyl)benzenesulfonamide] | 0.136 µM | 3.68 µM | 0.04 | 0.03 | 0.0752 µM | 1.8 | 1.5 | 0.0674 µM | 2.0 | 1.7 | 0.115 µM | 1.2 |  |
| NS(=O)(=O)c1ccc(CCNCc2ccc(Br)cc2)cc1 [Compound 7, 4-(2-((4-Bromobenzyl)amino)ethyl)benzenesulfonamide] | 0.214 µM | 5.24 µM | 0.04 | 0.04 | 0.0836 µM | 2.6 | 2.3 | 0.0864 µM | 2.5 | 2.2 | 0.189 µM | 1.1 |  |
| N#Cc1ccc(CNCCc2ccc(S(N)(=O)=O)cc2)cc1 [Compound 8, 4-(2-((4-Cyanobenzyl)amino)ethyl)benzenesulfonamide] | 0.0914 µM | 1.78 µM |  |  | 0.0529 µM |  |  |  |  |  | 0.0702 µM |  |  |
| CN(C)c1ccc(CNCCc2ccc(S(N)(=O)=O)cc2)cc1 [Compound 9, 4-(2-((4-(Dimethylamino)benzyl)amino)ethyl)benzenesulfonamide] |  | 0.961 µM |  |  |  |  |  |  |  |  |  |  |  |
| COc1cc([N+](=O)[O-])ccc1CNCCc1ccc(S(N)(=O)=O)cc1 [Compound 11, 4-(2-((2-Methoxy-4-nitrobenzyl)amino)ethyl)benzenesulfonamide] | 0.145 µM | 1.86 µM |  |  |  |  |  |  |  |  |  |  |  |
| COc1ccc(CNCCc2ccc(S(N)(=O)=O)cc2)cc1 [Compound 12, 4-(2-((4-Methoxybenzyl)amino)ethyl)benzenesulfonamide] | 0.0972 µM | 1.45 µM |  |  | 0.0572 µM |  |  |  |  |  |  |  |  |
| COc1ccc(CNCCc2ccc(S(N)(=O)=O)cc2)cc1OC [Compound 13, 4-(2-((3,4-Dimethoxybenzyl)amino)ethyl)benzenesulfonamide] | 0.0886 µM | 1.1 µM |  | 0.07 | 0.051 µM | 0.9 | 1.5 | 0.103 µM | 0.9 | 0.7 | 0.0752 µM | 1.2 |  |
| CSc1ccc(CNCCc2ccc(S(N)(=O)=O)cc2)cc1 [Compound 14, 4-(2-((4-(Methylthio)benzyl)amino)ethyl)benzenesulfonamide] | 0.122 µM | 2.13 µM |  |  | 0.0886 µM |  |  | 0.112 µM |  |  |  |  |  |
| NS(=O)(=O)c1ccc(CCNCc2csc3ccccc23)cc1 [Compound 16, 4-(2-((Benzo[b]thiophen-3-ylmethyl)amino)ethyl)benzenesulfonamide] | 0.374 µM | 7.24 µM | 0.05 | 0.03 | 0.0698 µM | 5.3 | 2.8 | 0.0705 µM | 5.3 | 2.8 | 0.202 µM | 1.9 |  |
| N#Cc1ccc(CN(CCc2ccc(S(N)(=O)=O)cc2)C(=O)c2ccc(-c3cssc3=S)cc2)cc1 [Compound 23, N-(4-Cyanobenzyl)-N-(4-sulfamoylphenethyl)-4-(3-thioxo-3H-1,2-dithiol-4-yl)benzamide] |  |  | >216.4 | 104 |  | >1136 | 548 |  | >248 | 120 |  |  | 251 to 252 °C |
| NS(=O)(=O)c1ccc(CCN(Cc2ccc([N+](=O)[O-])cc2)C(=O)c2ccc(-c3cssc3=S)cc2)cc1 [Compound 25, N-(4-Nitrobenzyl)-N-(4-sulfamoylphenethyl)-4-(3-thioxo-3H-1,2-dithiol-4-yl)benzamide] |  |  | <0.7 | <0.09 |  | 226 | 27.9 |  | 204 | 25.1 |  |  | 223 to 224 °C |
| NS(=O)(=O)c1ccc(CCN(CCc2ccccc2)C(=O)c2ccc(-c3cssc3=S)cc2)cc1 [Compound 32, N-Phenethyl-N-(4-sulfamoylphenethyl)-4-(3-thioxo-3H-1,2-dithiol-4-yl)benzamide] |  |  | 18.0 | 2.7 |  | 462 | 69.6 |  | 34.9 | 5.3 |  |  | 228 to 229 °C |
| N#CCCN(CCc1ccc(S(N)(=O)=O)cc1)C(=O)c1ccc(-c2cssc2=S)cc1 [Compound 33, N-(2-Cyanoethyl)-N-(4-sulfamoylphenethyl)-4-(3-thioxo-3H-1,2-dithiol-4-yl)benzamide] |  |  | 0.8 | 0.11 |  | 45.2 | 6.4 |  | 15.0 | 2.1 |  |  |  |
